The structures appear in SMILES notation.

This is an account of results in patent publication US20230373952A1, “LACTAM COMPOUNDS AS Kv1.3 POTASSIUM SHAKER CHANNEL BLOCKERS” (D.E. Shaw Research, LLC, priority 2020, published 2023).

In experiment [1] the target is T1, Kv1.3 potassium channel (Homo sapiens, UniProt P22001).
T1 construct: expressed in transfected cells
The experiment can be described thus: Kv1.3 potassium channel blocker activity, automated whole-cell patch clamp (Patchliner). The class given is cell-based. The note with it: CHO-K1 cells stably expressing Kv1.3; whole-cell current inhibition, Hill fit; read-out: Kv1.3 IC50. How it is done:
CHO-K1 cells stably expressing Kv1.3 were grown in DMEM containing 10% heat-inactivated FBS, 1 mM sodium pyruvate, 2 mM L-glutamine and G418 (500 μg/ml).
The currents were evoked by applying 100 ms depolarizing pulses from −90 mV (holding potential) to +40 mV were applied with 0.1 Hz frequency. […] 10-second breaks were used between pulse trains (see Table H below).
Passive leak currents were subtracted online using a P/4 procedure (HEKA Elektronik Dr. Schulze GmbH). […] Total compound incubation time before the next pulse train was not longer than 10 seconds. Peak current inhibition was observed during compound equilibration.
(Patch clamp records ionic current or voltage across a cell membrane.)

The target in experiment [2] is hERG channel (Homo sapiens, UniProt Q12809). The experiment can be described thus: cell-based.
Sequence of hERG channel (Q12809 whole entry): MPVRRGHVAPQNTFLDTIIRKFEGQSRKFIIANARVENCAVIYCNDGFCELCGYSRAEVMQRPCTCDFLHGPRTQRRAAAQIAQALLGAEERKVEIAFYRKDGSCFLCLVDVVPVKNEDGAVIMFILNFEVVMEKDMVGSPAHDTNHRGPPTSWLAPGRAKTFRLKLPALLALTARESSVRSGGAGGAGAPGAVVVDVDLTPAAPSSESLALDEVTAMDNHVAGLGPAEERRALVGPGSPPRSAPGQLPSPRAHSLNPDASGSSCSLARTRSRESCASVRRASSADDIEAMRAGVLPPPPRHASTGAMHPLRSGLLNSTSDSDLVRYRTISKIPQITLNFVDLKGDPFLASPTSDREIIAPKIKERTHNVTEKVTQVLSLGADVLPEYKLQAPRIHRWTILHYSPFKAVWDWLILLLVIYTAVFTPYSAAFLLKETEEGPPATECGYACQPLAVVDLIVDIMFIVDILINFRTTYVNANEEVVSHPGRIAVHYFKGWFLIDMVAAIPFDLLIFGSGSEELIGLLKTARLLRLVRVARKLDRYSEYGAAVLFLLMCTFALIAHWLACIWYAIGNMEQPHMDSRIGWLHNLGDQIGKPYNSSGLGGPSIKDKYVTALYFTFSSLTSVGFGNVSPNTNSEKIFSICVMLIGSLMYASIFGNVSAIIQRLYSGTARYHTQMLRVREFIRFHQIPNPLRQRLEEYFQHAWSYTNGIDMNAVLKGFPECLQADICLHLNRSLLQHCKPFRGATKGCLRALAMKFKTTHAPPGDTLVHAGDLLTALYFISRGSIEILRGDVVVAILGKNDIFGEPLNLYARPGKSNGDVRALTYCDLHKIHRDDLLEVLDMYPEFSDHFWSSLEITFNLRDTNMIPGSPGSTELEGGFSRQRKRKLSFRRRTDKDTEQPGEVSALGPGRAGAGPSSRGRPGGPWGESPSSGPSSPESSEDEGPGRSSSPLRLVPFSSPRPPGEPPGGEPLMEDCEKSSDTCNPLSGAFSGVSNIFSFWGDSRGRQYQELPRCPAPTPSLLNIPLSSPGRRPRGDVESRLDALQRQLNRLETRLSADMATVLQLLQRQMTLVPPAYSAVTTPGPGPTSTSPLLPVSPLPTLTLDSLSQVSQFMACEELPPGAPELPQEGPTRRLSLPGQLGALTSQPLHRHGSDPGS
Experimental: This assay is used to evaluate the disclosed compounds' inhibition activities against the hERG channel.
CHO-K1 cells stably expressing hERG were grown in Ham's F-12 Medium with glutamine containing 10% heat-inactivated FBS, 1% penicillin/streptomycin, hygromycin (100 μg/ml) and G418 (100 μg/ml). Cells were grown in culture flasks at 37° C. in a 5% CO2-humidified incubator.
All compounds were dissolved in DMSO at 30 mM. Compound stock solutions were freshly diluted with external solution to concentrations of 30 nM, 100 nM, 300 nM, 1 μM, 3 μM, 10 μM, 30 μM and 100 μM. The highest content of DMSO (0.3%) was present in 100 μM.
The voltage protocol (see Table I) was designed to simulate voltage changes during a cardiac action potential with a 300 ms depolarization to +20 mV (analogous to the plateau phase of the cardiac action potential), a repolarization for 300 ms to −50 mV (inducing a tail current) and a final step to the holding potential of −80 mV. The pulse frequency was 0.3 Hz. Control (compound-free) and compound pulse trains for each compound concentration applied contained 70 pulses.
Whole-cell current recordings and compound application were enabled by means of an automated patch clamp platform Patchliner (Nanion). EPC 10 patch clamp amplifier (HEKA) along with Patchmaster software (HEKA Elektronik Dr. Schulze GmbH) was used for data acquisition. Data were sampled at 10 kHz without filtering. Increasing compound concentrations were applied consecutively to the same cell without washouts in between.
AUC and PEAK values were obtained with Patchmaster (HEKA Elektronik Dr. Schulze GmbH). To determine IC50 the last single pulse in the pulse train corresponding to a given compound concentration was used. Obtained AUC and PEAK values in the presence of compound were normalized to control values in the absence of compound.

T1 sequence (P22001 whole entry): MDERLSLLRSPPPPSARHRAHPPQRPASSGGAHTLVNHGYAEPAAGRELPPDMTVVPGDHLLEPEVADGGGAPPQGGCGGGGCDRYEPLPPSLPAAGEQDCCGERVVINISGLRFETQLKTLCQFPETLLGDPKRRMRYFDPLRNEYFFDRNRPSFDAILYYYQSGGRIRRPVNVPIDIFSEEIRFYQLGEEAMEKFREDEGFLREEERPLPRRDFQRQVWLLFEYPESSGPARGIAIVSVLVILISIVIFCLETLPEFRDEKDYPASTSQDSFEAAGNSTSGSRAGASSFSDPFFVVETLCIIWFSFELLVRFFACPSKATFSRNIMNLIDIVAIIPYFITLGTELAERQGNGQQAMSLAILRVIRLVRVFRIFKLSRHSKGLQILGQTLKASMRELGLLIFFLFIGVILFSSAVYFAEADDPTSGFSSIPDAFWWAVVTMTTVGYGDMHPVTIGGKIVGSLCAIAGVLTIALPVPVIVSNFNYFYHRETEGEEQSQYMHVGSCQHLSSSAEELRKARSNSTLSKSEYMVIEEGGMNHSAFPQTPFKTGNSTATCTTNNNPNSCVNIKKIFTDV

The term IC50 denotes the midpoint of a concentration-inhibition curve. In the case of `CC1[C@H](c2c(O)ccc(Cl)c2Cl)CC(=O)N1CCO` (stereo in doubt) [Compound 81, (4S,5S)-4-(2,3-dichloro-6-hydroxyphenyl)-1-(2-hydroxyethyl)-5-methylpyrrolidin-2-one], the concentration for half-maximal inhibition (IC50) in experiment [1] is less than 0.1 µM; in experiment [2] it was more than 30 µM.

As for `O=C1C[C@@H](c2c(O)ccc(Cl)c2Cl)CN1C[C@H](O)CO` [Compound 30, (4S)-4-(2,3-dichloro-6-hydroxyphenyl)-1-[(2S)-2,3-dihydroxypropyl]pyrrolidin-2-one], the IC50 in experiment [1] was less than 0.1 µM; in experiment [2] it was more than 100 µM.

As for `NCC(O)CN1C[C@H](c2c(O)ccc(Cl)c2Cl)CC1=O` (single isomer, unassigned; isomer 2) [Compound 52], the IC50 in experiment [1] is less than 0.1 µM; in experiment [2] it was more than 100 µM.

Consider `CC1[C@H](c2c(O)ccc(Cl)c2Cl)CC(=O)N1C1CNC1` (stereo in doubt) [Compound 77, (4S,5S)-1-(azetidin-3-yl)-4-(2,3-dichloro-6-hydroxyphenyl)-5-methylpyrrolidin-2-one], for which the results for the IC50 in experiment [1] and in experiment [2] were less than 0.1 µM and more than 30 µM, respectively.

With `O=C1C[C@@H](c2c(O)ccc(Cl)c2Cl)CN1C1CCOCC1` [Compound 17, (4S)-4-(2,3-dichloro-6-hydroxyphenyl)-1-(pyran-4-yl)pyrrolidin-2-one], the results for the IC50 in experiment [1] and in experiment [2] were less than 1 µM and more than 30 µM, respectively.

As for `NC[C@@H](O)CN1C[C@H](c2c(O)ccc(Cl)c2Cl)CC1=O` (single isomer, unassigned; isomer 1) [Compound 51], the results for the 50% inhibitory concentration (IC50) in experiment [1] and in experiment [2] were less than 0.1 µM and more than 100 µM, respectively.

Consider `O=C1C[C@@H](c2c(O)ccc(Cl)c2Cl)CN1[C@H]1C[C@](O)(CO)C1` (single isomer, unassigned; isomer 4) [Compound 71], for which the figures for the IC50 in experiment [1] and in experiment [2] were less than 0.1 µM and more than 100 µM, respectively.

As for `O=C1N[C@@H](c2c(O)ccc(Cl)c2Cl)CN1C[C@@H](O)CO` [Compound 103, (4S)-4-(2,3-dichloro-6-hydroxyphenyl)-1-[(2R)-2,3-dihydroxypropyl]imidazolidin-2-one], the values for the IC50 in experiment [1] and in experiment [2] were less than 1 µM and more than 100 µM, respectively.

As for `O=C1C[C@@H](c2c(O)ccc(Cl)c2Cl)CN1C1CC(F)(F)C1` [Compound 74, (S)-4-(2,3-dichloro-6-hydroxyphenyl)-1-(3,3-difluorocyclobutyl)pyrrolidin-2-one], the IC50 in experiment [1] was less than 1 µM; in experiment [2], more than 30 µM.

With `COCCN1C[C@H](c2c(O)ccc(Cl)c2Cl)CC1=O` [Compound 36, (4S)-4-(2,3-dichloro-6-hydroxyphenyl)-1-(2-methoxyethyl)pyrrolidin-2-one], the IC50 in experiment [1] was less than 0.1 µM; in experiment [2], more than 30 µM.

For the compound `CC(CO)N1C[C@H](c2c(O)ccc(Cl)c2Cl)CC1=O` (single isomer, unassigned; isomer 1) [Compound 38], the IC50 was less than 1 µM in experiment [1] and more than 30 µM in experiment [2].

Consider `O=C1O[C@@H](c2c(O)ccc(Cl)c2Cl)CN1CCO` (single isomer, unassigned; isomer 2) [Compound 94, 5-(2,3-dichloro-6-hydroxyphenyl)-3-(2-hydroxyethyl)oxazolidin-2-one isomer 2], for which the results for the IC50 in experiment [1] and in experiment [2] were less than 1 µM and more than 100 µM, respectively.

For the compound `C[C@H]1[C@H](c2c(O)ccc(Cl)c2Cl)CC(=O)N1CCCO` [Compound 86, (4S,5S)-4-(2,3-dichloro-6-hydroxyphenyl)-1-(3-hydroxypropyl)-5-methylpyrrolidin-2-one], the half-inhibitory concentration (IC50) was less than 0.1 µM in experiment [1] and more than 30 µM in experiment [2].

For the compound `O=C1CO[C@H](c2c(O)ccc(Cl)c2Cl)CN1CCO` (single isomer, unassigned; isomer 1) [Compound 95, 6-(2,3-dichloro-6-hydroxyphenyl)-4-(2-hydroxyethyl)morpholin-3-one isomer 1], the IC50 was less than 1 µM in experiment [1] and more than 100 µM in experiment [2].

With `O=C1N[C@@H](c2c(O)ccc(Cl)c2Cl)CN1CCO` [Compound 99, (4S)-4-(2,3-dichloro-6-hydroxyphenyl)-1-(2-hydroxyethyl)imidazolidin-2-one], the IC50 in experiment [1] was less than 0.1 µM; in experiment [2], more than 100 µM.

In the case of `O=C1N[C@@H](c2c(O)ccc(Cl)c2Cl)CN1C[C@H](O)CO` [Compound 102, (4S)-4-(2,3-dichloro-6-hydroxyphenyl)-1-[(2S)-2,3-dihydroxypropyl]imidazolidin-2-one], the concentration for half-maximal inhibition (IC50) is less than 0.1 µM in experiment [1] and more than 100 µM in experiment [2].

Consider `O=C1C[C@@H](c2c(O)ccc(Cl)c2Cl)CN1C[C@@H](O)CO` [Compound 33, (4S)-4-(2,3-dichloro-6-hydroxyphenyl)-1-[(2R)-2,3-dihydroxypropyl]pyrrolidin-2-one], for which the values for the IC50 in experiment [1] and in experiment [2] were less than 0.1 µM and more than 100 µM, respectively.

As for `O=C1C[C@@H](c2c(O)ccc(Cl)c2Cl)CN1CCCO` [Compound 35, (4S)-4-(2,3-dichloro-6-hydroxyphenyl)-1-(3-hydroxypropyl)pyrrolidin-2-one], the IC50 in experiment [1] is less than 0.01 µM; in experiment [2], more than 30 µM.

As to `O=C1C[C@@H](c2cc(Cl)c(Cl)cc2O)CN1C1CNC1` [Compound 22, (4S)-1-(azetidin-3-yl)-4-(4,5-dichloro-2-hydroxyphenyl)pyrrolidin-2-one], the IC50 is less than 1 µM in experiment [1] and more than 100 µM in experiment [2].

For the compound `O=C1C[C@@H](c2c(O)ccc(Cl)c2Cl)CN1c1cnoc1` [Compound 72, (4S)-4-(2,3-dichloro-6-hydroxyphenyl)-1-(isoxazol-4-yl)pyrrolidin-2-one], the IC50 in experiment [1] was less than 1 µM; in experiment [2], more than 100 µM.

As for `O=C1C[C@@H](c2c(O)ccc(Cl)c2Cl)CCN1[C@H]1CCNC1` (single isomer, unassigned) [Compound 2, 4-(2,3-dichloro-6-hydroxyphenyl)-1-[pyrrolidin-3-yl]piperidin-2-one], the IC50 in experiment [1] was less than 0.1 µM; in experiment [2], more than 30 µM.

As to `O=C1N[C@H](c2c(O)ccc(Cl)c2Cl)CCN1[C@@H]1CCNC1` (single isomer, unassigned) [Compound 11, 4-(2,3-dichloro-6-hydroxyphenyl)-1-[pyrrolidin-3-yl]-tetrahydropyrimidin-2(1H)-one], the figures for the IC50 in experiment [1] and in experiment [2] were less than 1 µM and more than 10 µM, respectively.

As to `O=C1C[C@@H](c2c(O)ccc(Cl)c2Cl)CN1[C@H]1C[C@H](CO)C1` (single isomer, unassigned; isomer 1) [Compound 25], the IC50 in experiment [1] was less than 0.1 µM; in experiment [2], more than 30 µM.

As to `O=C1C[C@@H](c2c(O)ccc(Cl)c2Cl)CN1CCC(F)(F)F` [Compound 37, (4S)-4-(2,3-dichloro-6-hydroxyphenyl)-1-(3,3,3-trifluoropropyl)pyrrolidin-2-one], the IC50 in experiment [1] was less than 1 µM; in experiment [2], more than 100 µM.

`C[C@H](O)CN1C[C@H](c2c(O)ccc(Cl)c2Cl)CC1=O` [Compound 54, (4S)-4-(2,3-dichloro-6-hydroxyphenyl)-1-[(2S)-2-hydroxypropyl]pyrrolidin-2-one]: the figures for the IC50 in experiment [1] and in experiment [2] were less than 0.1 µM and more than 30 µM, respectively.

Turning to `O=C1CNCCN1CCN1C[C@H](c2c(O)ccc(Cl)c2Cl)CC1=O` [Compound 75, 1-[2-[(4S)-4-(2,3-dichloro-6-hydroxyphenyl)-2-oxopyrrolidin-1-yl]ethyl]piperazin-2-one], the concentration for half-maximal inhibition (IC50) in experiment [1] is less than 0.1 µM; in experiment [2], more than 30 µM.

With `O=C1C[C@@H](c2c(O)ccc(Cl)c2Cl)CN1C1CN(CCO)C1` [Compound 16, (4S)-4-(2,3-dichloro-6-hydroxyphenyl)-1-[1-(2-hydroxyethyl)azetidin-3-yl]pyrrolidin-2-one], the IC50 in experiment [1] was less than 0.1 µM; in experiment [2], more than 10 µM.

Regarding `Cn1cc(CN2C[C@H](c3c(O)ccc(Cl)c3Cl)CC2=O)cn1` [Compound 23, (4S)-4-(2,3-dichloro-6-hydroxyphenyl)-1-[(1-methylpyrazol-4-yl)methyl]pyrrolidin-2-one], the IC50 is less than 1 µM in experiment [1] and more than 30 µM in experiment [2].

As to `O=C1CC[C@H](c2c(O)ccc(Cl)c2Cl)CN1[C@H]1CCNC1` (single isomer, unassigned) [Compound 7, 5-(2,3-dichloro-6-hydroxyphenyl)-1-[pyrrolidin-3-yl]piperidin-2-one], the IC50 in experiment [1] was less than 0.1 µM; in experiment [2], more than 30 µM.

For `CC(O)(CO)CN1C[C@H](c2c(O)ccc(Cl)c2Cl)CC1=O` (stereo partly drawn) [Compound 55, (4S)-4-(2,3-dichloro-6-hydroxyphenyl)-1-(2,3-dihydroxy-2-methylpropyl)pyrrolidin-2-one], the figures for the IC50 in experiment [1] and in experiment [2] were less than 1 µM and more than 100 µM, respectively.

For the compound `O=C1C[C@H](c2c(O)ccc(Cl)c2Cl)CN1[C@@H]1CCNC1` (single isomer, unassigned) [Compound 13, 4-(2,3-dichloro-6-hydroxyphenyl)-[1,3-bipyrrolidin]-2-one], the results for the 50% inhibitory concentration (IC50) in experiment [1] and in experiment [2] were less than 0.1 µM and more than 10 µM, respectively.

As to `CC1[C@@H](c2c(O)ccc(Cl)c2Cl)CC(=O)N1C1CNC1` (stereo in doubt) [Compound 76, (4R,5R)-1-(azetidin-3-yl)-4-(2,3-dichloro-6-hydroxyphenyl)-5-methylpyrrolidin-2-one], the figures for the IC50 in experiment [1] and in experiment [2] were less than 1 µM and more than 100 µM, respectively.

As for `O=C1CC(c2c(O)ccc(Cl)c2Cl)CCN1C1CCNC1` (single isomer, unassigned) [Compound 1, 4-(2,3-dichloro-6-hydroxyphenyl)-1-[pyrrolidin-3-yl]piperidin-2-one], the IC50 is less than 0.1 µM in experiment [1] and more than 30 µM in experiment [2].

Regarding `CN(C)C(=O)CCN1C[C@H](c2c(O)ccc(Cl)c2Cl)CC1=O` [Compound 41, (S)-3-(4-(2,3-dichloro-6-hydroxyphenyl)-2-oxopyrrolidin-1-yl)-N,N-dimethylpropanamide], the figures for the IC50 in experiment [1] and in experiment [2] were less than 0.1 µM and more than 100 µM, respectively.
